Source: US20110105623A1 (Biogenic Innovations, LLC, priority 2009, published 2011)

What was measured:
Chlorella minutissima = assay: Algal growth by percent transmittance at 750 nm; format: cell-based
Experimental: (§1) Two species of Chlorella were examined for growth—Chlorella sorokiniana a freshwater species and Chlorella minutissima a marine species. […] Growth was measured on day 0, 1, 2, 3, 4, 5, 6, 7, 8, 9 and 10. […] The following media were purchased from UTEX Culture Collection of Algae: Enriched Salt Water Medium and Volvox Dextrose Medium.
(§2) The algae were grown for 48 hours in the appropriate medium. The initial suspension was enumerated for each alga and is referred to as the starting inoculums. Chlorella sorokiniana was at 381 million cells per milliliter and Chlorella minutissima was at 19 million cells per milliliter. One milliliter of the algal solution was placed into 9 mLs of medium and mixed by vortexing. […] The tube of algae and MSM were incubated at room temperature with exposure to sunlight. […] Each dilution of MSM for each organism was set up in and analyzed in triplicate for each time interval measured. The samples were measured by percent transmittance on a UV/VIS spectrophotometer at wavelength 750 nm. The medium stock was tested for percent transmittance background levels at every time interval were measured. The lower percent transmittance indicated a higher growth factor.

Chlorella sorokiniana = assay: Algal growth by percent transmittance at 750 nm; format: cell-based; details: MSM 0.5%
Experimental: as §1, §2

Methylsulfonylmethane [MSM]
Growth, percent transmittance at 750 nm (Chlorella minutissima; MSM 0.5%, Sample Day 0): 93.5%
Growth, percent transmittance at 750 nm (Chlorella minutissima; MSM 0.5%, Sample Day 1): 70.1%
Growth, percent transmittance at 750 nm (Chlorella minutissima; MSM 0.5%, Sample Day 2): 45.4%
Growth, percent transmittance at 750 nm (Chlorella minutissima; MSM 0.5%, Sample Day 3): 32.1%
Growth, percent transmittance at 750 nm (Chlorella minutissima; MSM 0.5%, Sample Day 4): 27.6%
Growth, percent transmittance at 750 nm (Chlorella minutissima; MSM 0.5%, Sample Day 5): 26.6%
Growth, percent transmittance at 750 nm (Chlorella minutissima; MSM 0.5%, Sample Day 6): 25.1%
Growth, percent transmittance at 750 nm (Chlorella minutissima; MSM 0.5%, Sample Day 7): 23.6%
Growth, percent transmittance at 750 nm (Chlorella minutissima; MSM 0.5%, Sample Day 8): 22.8%
Growth, percent transmittance at 750 nm (Chlorella minutissima; MSM 0.5%, Sample Day 9): 20.4%
Growth, percent transmittance at 750 nm (Chlorella minutissima; MSM 0.5%, Sample Day 10): 18.9%
Growth, percent transmittance at 750 nm (Chlorella minutissima; MSM 1.0%, Sample Day 0): 91.1%
Growth, percent transmittance at 750 nm (Chlorella minutissima; MSM 1.0%, Sample Day 1): 80.5%
Growth, percent transmittance at 750 nm (Chlorella minutissima; MSM 1.0%, Sample Day 2): 40.0%
Growth, percent transmittance at 750 nm (Chlorella minutissima; MSM 1.0%, Sample Day 3): 31.0%
Growth, percent transmittance at 750 nm (Chlorella minutissima; MSM 1.0%, Sample Day 4): 27.9%
Growth, percent transmittance at 750 nm (Chlorella minutissima; MSM 1.0%, Sample Day 5): 26.5%
Growth, percent transmittance at 750 nm (Chlorella minutissima; MSM 1.0%, Sample Day 6): 25.4%
Growth, percent transmittance at 750 nm (Chlorella minutissima; MSM 1.0%, Sample Day 7): 24.4%
Growth, percent transmittance at 750 nm (Chlorella minutissima; MSM 1.0%, Sample Day 8): 23.7%
Growth, percent transmittance at 750 nm (Chlorella minutissima; MSM 1.0%, Sample Day 9): 21.0%
Growth, percent transmittance at 750 nm (Chlorella minutissima; MSM 1.0%, Sample Day 10): 19.4%
Growth, percent transmittance at 750 nm (Chlorella minutissima; MSM 5.0%, Sample Day 0): 68.9%
Growth, percent transmittance at 750 nm (Chlorella minutissima; MSM 5.0%, Sample Day 1): 87.4%
Growth, percent transmittance at 750 nm (Chlorella minutissima; MSM 5.0%, Sample Day 2): 76.5%
Growth, percent transmittance at 750 nm (Chlorella minutissima; MSM 5.0%, Sample Day 3): 62.0%
Growth, percent transmittance at 750 nm (Chlorella minutissima; MSM 5.0%, Sample Day 4): 52.9%
Growth, percent transmittance at 750 nm (Chlorella minutissima; MSM 5.0%, Sample Day 5): 52.2%
Growth, percent transmittance at 750 nm (Chlorella minutissima; MSM 5.0%, Sample Day 6): 50.7%
Growth, percent transmittance at 750 nm (Chlorella minutissima; MSM 5.0%, Sample Day 7): 51.0%
Growth, percent transmittance at 750 nm (Chlorella minutissima; MSM 5.0%, Sample Day 8): 51.9%
Growth, percent transmittance at 750 nm (Chlorella minutissima; MSM 5.0%, Sample Day 9): 47.1%
Growth, percent transmittance at 750 nm (Chlorella minutissima; MSM 5.0%, Sample Day 10): 44.1%
Growth, percent transmittance at 750 nm (Chlorella minutissima; MSM 10.0%, Sample Day 0): 49.6%
Growth, percent transmittance at 750 nm (Chlorella minutissima; MSM 10.0%, Sample Day 1): 49.2%
Growth, percent transmittance at 750 nm (Chlorella minutissima; MSM 10.0%, Sample Day 2): 50.8%
Growth, percent transmittance at 750 nm (Chlorella minutissima; MSM 10.0%, Sample Day 3): 51.9%
Growth, percent transmittance at 750 nm (Chlorella minutissima; MSM 10.0%, Sample Day 4): 52.0%
Growth, percent transmittance at 750 nm (Chlorella minutissima; MSM 10.0%, Sample Day 5): 51.9%
Growth, percent transmittance at 750 nm (Chlorella minutissima; MSM 10.0%, Sample Day 6): 54.9%
Growth, percent transmittance at 750 nm (Chlorella minutissima; MSM 10.0%, Sample Day 7): 56.1%
Growth, percent transmittance at 750 nm (Chlorella minutissima; MSM 10.0%, Sample Day 8): 58.6%
Growth, percent transmittance at 750 nm (Chlorella minutissima; MSM 10.0%, Sample Day 9): 41.4%
Growth, percent transmittance at 750 nm (Chlorella minutissima; MSM 10.0%, Sample Day 10): 36.7%
Growth, percent transmittance at 750 nm (Chlorella minutissima; MSM 20.0%, Sample Day 0): 30.0%
Growth, percent transmittance at 750 nm (Chlorella minutissima; MSM 20.0%, Sample Day 1): 33.8%
Growth, percent transmittance at 750 nm (Chlorella minutissima; MSM 20.0%, Sample Day 2): 51.1%
Growth, percent transmittance at 750 nm (Chlorella minutissima; MSM 20.0%, Sample Day 3): 54.8%
Growth, percent transmittance at 750 nm (Chlorella minutissima; MSM 20.0%, Sample Day 4): 57.3%
Growth, percent transmittance at 750 nm (Chlorella minutissima; MSM 20.0%, Sample Day 5): 57.5%
Growth, percent transmittance at 750 nm (Chlorella minutissima; MSM 20.0%, Sample Day 6): 57.4%
Growth, percent transmittance at 750 nm (Chlorella minutissima; MSM 20.0%, Sample Day 7): 57.1%
Growth, percent transmittance at 750 nm (Chlorella minutissima; MSM 20.0%, Sample Day 8): 55.8%
Growth, percent transmittance at 750 nm (Chlorella minutissima; MSM 20.0%, Sample Day 9): 45.1%
Growth, percent transmittance at 750 nm (Chlorella minutissima; MSM 20.0%, Sample Day 10): 30.2%
Growth, percent transmittance at 750 nm (Chlorella minutissima; MSM […], Sample Day 0): 82.8%
Growth, percent transmittance at 750 nm (Chlorella minutissima; MSM […], Sample Day 1): 75.1%
Growth, percent transmittance at 750 nm (Chlorella minutissima; MSM […], Sample Day 2): 59.5%
Growth, percent transmittance at 750 nm (Chlorella minutissima; MSM […], Sample Day 3): 45.4%
Growth, percent transmittance at 750 nm (Chlorella minutissima; MSM […], Sample Day 4): 33.6%
Growth, percent transmittance at 750 nm (Chlorella minutissima; MSM […], Sample Day 5): 32.4%
Growth, percent transmittance at 750 nm (Chlorella minutissima; MSM […], Sample Day 6): 30.0%
Growth, percent transmittance at 750 nm (Chlorella minutissima; MSM […], Sample Day 7): 28.6%
Growth, percent transmittance at 750 nm (Chlorella minutissima; MSM […], Sample Day 8): 27.7%
Growth, percent transmittance at 750 nm (Chlorella minutissima; MSM […], Sample Day 9): 23.3%
Growth, percent transmittance at 750 nm (Chlorella minutissima; MSM […], Sample Day 10): 21.1%
Growth, percent transmittance at 750 nm (Chlorella sorokiniana; Sample Day 0): 47.3%
Growth, percent transmittance at 750 nm (Chlorella sorokiniana; Sample Day 1): 41.8%
Growth, percent transmittance at 750 nm (Chlorella sorokiniana; Sample Day 2): 29.3%
Growth, percent transmittance at 750 nm (Chlorella sorokiniana; Sample Day 3): 29.6%
Growth, percent transmittance at 750 nm (Chlorella sorokiniana; Sample Day 4): 19.0%
Growth, percent transmittance at 750 nm (Chlorella sorokiniana; Sample Day 5): 12.4%
